Experimental data from patent US20240383908A1, “SYNTHESIS AND APPLICATION OF PHOSPHATASE DEGRADER” (HINOVA PHARMACEUTICALS INC., priority 2021, published 2024).

How the values were obtained:
[1] = target: T1, SHP2 protein (Homo sapiens, UniProt Q06124); test: Degradation activity on SHP2 protein in MIA Paca-2 cells (Western blot, DC50); type: cell-based; set-up: endogenous in cells; host or cells: MIA Paca-2 cells; conditions: read-out: Degradation activity for differenct cell lines MIA Paca-2 (DC50)
T1 sequence (Q06124 1-593): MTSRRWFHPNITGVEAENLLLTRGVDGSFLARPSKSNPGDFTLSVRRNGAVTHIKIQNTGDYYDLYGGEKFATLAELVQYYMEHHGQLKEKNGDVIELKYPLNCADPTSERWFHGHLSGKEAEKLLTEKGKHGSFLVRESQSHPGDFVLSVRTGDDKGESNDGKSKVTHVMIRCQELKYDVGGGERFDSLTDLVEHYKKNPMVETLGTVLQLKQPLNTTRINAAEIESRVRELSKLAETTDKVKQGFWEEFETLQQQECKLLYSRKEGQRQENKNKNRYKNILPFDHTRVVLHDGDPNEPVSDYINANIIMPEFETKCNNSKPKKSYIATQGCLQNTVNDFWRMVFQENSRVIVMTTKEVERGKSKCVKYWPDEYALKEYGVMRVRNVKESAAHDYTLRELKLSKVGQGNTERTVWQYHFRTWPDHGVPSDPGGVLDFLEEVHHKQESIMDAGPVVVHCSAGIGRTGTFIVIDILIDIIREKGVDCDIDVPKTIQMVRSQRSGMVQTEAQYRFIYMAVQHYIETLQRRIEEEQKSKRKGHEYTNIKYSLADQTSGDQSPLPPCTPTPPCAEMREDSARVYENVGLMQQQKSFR
How it was run: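 DC50 is the concentration degrading 50% of SHP2 relative to DMSO control. It was derived by fitting Western blot band densitometry (anti-SHP2, GAPDH reference) from cells exposed 24 h to 0.1–100 nM compound in 0.1% DMSO.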

[2] = target: T1, SHP2 protein; test: Degradation activity on SHP2 protein in MV-411 cells (Western blot, DC50); type: cell-based; set-up: endogenous in cells; conditions: MV411 cells, 24 hours, read-out: Degradation activity for differenct cell lines MV411 (DC50)
How it was run: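 Western blot of SHP2 (GAPDH loading control, 30 μg protein/lane) in lysates of MV-411 cells exposed 24 h to final compound concentrations of 100, 10, 3, 1, 0.3 and 0.1 nM (0.1% DMSO). Degradation relative to DMSO set at 100%; DC50 derived by curve fitting.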

DC50 [1] [nM]	DC50 [2] [nM]	Compound
< 100	< 100	CC1(N)CCN(c2cnc(Sc3cccc(NC(=O)CCCCCCCCN4CCN(c5ncc(C(=O)NCc6ccc7c(c6)CN(C6CCC(=O)NC6=O)C7=O)cn5)CC4)c3)cn2)CC1 (centres unmarked) [Compound 48, 2-(4-(9-((3-((5-(4-amino-4-methylpyridin-1-yl)pyrazin-2-yl)thio)phenyl)amino)-9-oxononyl)piperazin-1-yl)-N-((2-(2,6-dioxopiperidin-3-yl)-1-oxoisoindol-5-yl)methyl)pyrimidine-5-formamide]
> 1000	< 100	CC1(N)CCN(c2cnc(Sc3cccc(NC(=O)/C=C/C(=O)N4CCN(CCCCCCCCC(=O)NCc5ccc6c(c5)CN(C5CCC(=O)NC5=O)C6=O)CC4)c3)cn2)CC1 (centres unmarked) [Compound 55]
100 to 1000	< 100	CC1(N)CCN(c2cnc(Sc3ccc(NC(=O)CCCCCCCCOC4CN(c5ncc(C(=O)NCc6ccc7c(c6)CN(C6CCC(=O)NC6=O)C7=O)cn5)C4)cc3)cn2)CC1 (centres unmarked) [Compound 74]
< 100	< 100	Cc1ncsc1-c1ccc([C@H](C)NC(=O)[C@@H]2C[C@@H](O)CN2C(=O)[C@@H](NC(=O)c2cnc(N3CCC4(CN(CCCCCCC(=O)Nc5cccc(Sc6cnc(N7CCC(C)(N)CC7)cn6)c5)C4)C3)nc2)C(C)(C)C)cc1 [Compound 90]
100 to 1000	< 100	CC1(N)CCN(c2cnc(Sc3cccc(NC(=O)CCCCCCN4CC5(CCN(c6ncc(C(=O)NCc7ccc8c(c7)CN(C7CCC(=O)NC7=O)C8=O)cn6)C5)C4)c3)cn2)CC1 (centres unmarked) [Compound 91]
100 to 1000	< 100	Cc1ncsc1-c1ccc([C@H](C)NC(=O)[C@@H]2C[C@@H](O)CN2C(=O)[C@@H](NC(=O)c2ccc(N3CCC4(CN(CCC(=O)Nc5cccc(Sc6cnc(N7CCC(C)(N)CC7)cn6)c5)C4)C3)nn2)C(C)(C)C)cc1 [Compound 98]
< 100	< 100	CC1(N)CCN(c2cnc(Sc3cccc(NC(=O)CCCCCCCO[C@H]4CCN(c5ccc(C(=O)NCc6ccc7c(c6)CN(C6CCC(=O)NC6=O)C7=O)nn5)C4)c3)cn2)CC1 (some centres unmarked) [Compound 102]
> 1000	< 100	CC1(N)CCN(c2cnc(Sc3cccc(NC(=O)CCCCCCCO[C@@H]4CCN(c5ncc(C(=O)NCc6ccc7c(c6)CN(C6CCC(=O)NC6=O)C7=O)cn5)C4)c3)cn2)CC1 (some centres unmarked) [Compound 104]
100 to 1000	< 100	Cc1ncsc1-c1ccc([C@H](C)NC(=O)[C@@H]2C[C@@H](O)CN2C(=O)[C@@H](NC(=O)c2ccc(N3CCC4(CN(CCCCCCCC(=O)Nc5cccc(Sc6cnc(N7CCC(C)(N)CC7)cn6)c5)C4)C3)nn2)C(C)(C)C)cc1 [Compound 105]
> 1000	< 100	CC1(N)CCN(c2cnc(Sc3cccc(NC(=O)CCCCCCCN4CC5(CCN(c6ccc(COc7cccc8c7CN(C7CCC(=O)NC7=O)C8=O)nn6)C5)C4)c3)cn2)CC1 (centres unmarked) [Compound 107]
–	< 100	CC1(N)CCN(c2cnc(Sc3cccc(NC(=O)CCCCCN4CC5(CCN(c6ccc(C(=O)NCc7ccc8c(c7)CN(C7CCC(=O)NC7=O)C8=O)nn6)C5)C4)c3)cn2)CC1 (centres unmarked) [Compound 164]
–	< 100	CN(Cc1ccc2c(c1)CN(C1CCC(=O)NC1=O)C2=O)C(=O)c1ccc(N2CCC3(CN(CCCCCC(=O)Nc4cccc(Sc5cnc(N6CCC(C)(N)CC6)cn5)c4)C3)C2)nn1 (centres unmarked) [Compound 165]
–	< 100	CN(Cc1ccc2c(c1)CN(C1CCC(=O)NC1=O)C2=O)C(=O)c1ccc(N2CCC3(CC(OCCCCCC(=O)Nc4cccc(Sc5cnc(N6CCC(C)(N)CC6)cn5)c4)C3)C2)nn1 (centres unmarked) [Compound 167]
–	< 100	CN(Cc1ccc2c(c1)CN(C1CCC(=O)NC1=O)C2=O)C(=O)c1ccc(N2CCC3(CN(CCCCCCC(=O)Nc4cccc(Sc5cnc(N6CCC(N)(CO)CC6)cn5)c4)C3)C2)nn1 (centres unmarked) [Compound 169]
–	< 100	CN(Cc1ccc2c(c1)CN(C1CCC(=O)NC1=O)C2=O)C(=O)c1cnc(N2CCC3(CN(CCCCCCC(=O)Nc4cccc(Sc5cnc(N6CCC(C)(N)CC6)cn5)c4)C3)C2)c(C(F)(F)F)c1 (centres unmarked) [Compound 171]
–	< 100	CC1(N)CCN(c2cnc(Sc3cccc(NC(=O)CCCCCCCN4CC5(CC(n6cc(C#Cc7ccc8c(c7)CN(C7CCC(=O)NC7=O)C8=O)cn6)C5)C4)c3)cn2)CC1 (centres unmarked) [Compound 172]
–	< 100	CN(Cc1ccc2c(c1)CN(C1CCC(=O)NC1=O)C2=O)C(=O)c1ccc(N2CCC(OCCCCCCCC(=O)Nc3cccc(Sc4cnc(N5CCC(C)(N)CC5)cn4)c3)C(F)(F)C2)nn1 (centres unmarked) [Compound 173]

DC50 [1] [nM]	DC50 [2] [nM]	Compound
–	< 100	CN(Cc1ccc2c(c1)CN(C1CCC(=O)NC1=O)C2=O)C(=O)c1cnc(N2CCC3(CN(CCCCCCC(=O)Nc4cccc(Sc5cnc(N6CCC(C)(N)CC6)cn5)c4)C3)C2)cn1 (centres unmarked) [Compound 180]
–	< 100	CN(Cc1ccc2c(c1)CN(C1CCC(=O)NC1=O)C2=O)C(=O)c1cnc(N2CCC3(CN(CCCCCCC(=O)Nc4cccc(Sc5cnc(N6CCC(C)(N)CC6)cn5)c4)C3)C2)c(Cl)c1 (centres unmarked) [Compound 182]
–	< 100	CN(Cc1ccc2c(c1)CN(C1CCC(=O)NC1=O)C2=O)C(=O)c1ccc(N2CC3CC(OCCCCCCC(=O)Nc4cccc(Sc5cnc(N6CCC(C)(N)CC6)cn5)c4)CC3C2)nn1 (centres unmarked) [Compound 184]
–	> 1000	CCCCCOC(=O)NC1(C)CCN(c2cnc(Sc3cccc(NC(=O)CCCCCCN4CC5(CCN(c6ccc(C(=O)NCc7ccc8c(c7)CN(C7CCC(=O)NC7=O)C8=O)nn6)C5)C4)c3)cn2)CC1 (centres unmarked) [Compound 187]
–	> 1000	CC1(N)CCN(c2cnc(Sc3cccc(NC(=O)CCCCCCN4CC5(CCN(c6ccc(C(NCc7ccc8c(c7)CN(C7CCC(=O)NC7=O)C8=O)C(F)(F)F)nn6)C5)C4)c3)cn2)CC1 (centres unmarked) [Compound 193, N-(3-((5-(4-amino-4-methylpyridin-1-yl)pyrazin-2-yl)thio)phenyl)-7-(6-(6-(1-(((2-(2,6-dioxopiperidin-3-yl)-1-oxoisoindol-5-yl)methyl)amino)-2,2,2-trifluoroethyl)pyridazin-3-yl)-2,6-diazaspiro[3.4]octan-2-yl)heptanamide]
–	< 100	NC1CCN(c2cnc(Sc3cccc(NC(=O)CCCCCCN4CC5(CCN(c6ccc(C(=O)NCc7ccc8c(c7)CN(C7CCC(=O)NC7=O)C8=O)nn6)C5)C4)c3)cn2)CC1CO (centres unmarked) [Compound 194]
–	100 to 1000	CC1(N)CCN(c2cnc(Sc3cccc(NC(=O)CCCCCCCCCCCNc4ccc(C(=O)NCc5ccc6c(c5)CN(C5CCC(=O)NC5=O)C6=O)nn4)c3)cn2)CC1 (centres unmarked) [Compound 195]
–	> 1000	N[C@H]1CCN(c2cnc(Sc3cccc(NC(=O)CCCCCN4CC5(CCN(c6ccc(C(=O)NCc7ccc8c(c7)CN(C7CCC(=O)NC7=O)C8=O)nn6)C5)C4)c3)cn2)C[C@@H]1O (some centres unmarked) [Compound 196]
–	> 1000	N[C@H]1CCN(c2cnc(Sc3cccc(NC(=O)CCCCCCN4CC5(CCN(c6ccc(C(=O)NCc7ccc8c(c7)CN(C7CCC(=O)NC7=O)C8=O)nn6)C5)C4)c3)cn2)C[C@@H]1O (some centres unmarked) [Compound 197]
–	> 1000	NC1(CO)CCN(c2cnc(Sc3cccc(NC(=O)CCCCCCN4CC5(CCN(c6ccc(C(=O)NCc7ccc8c(c7)CN(C7CCC(=O)NC7=O)C8=O)nn6)C5)C4)c3)cn2)C1 (centres unmarked) [Compound 198]
–	100 to 1000	NC1(CO)CCN(c2cnc(Sc3cccc(NC(=O)CCCCCCCNc4ccc(-c5ccc(C(=O)NCc6ccc7c(c6)C(=O)N(C6CCC(=O)NC6=O)C7)nn5)cc4)c3)cn2)CC1 (centres unmarked) [Compound 201]
–	< 100	NC1(CO)CCN(c2cnc(Sc3cccc(NC(=O)CCCCCCCCN4CC=C(c5ccc(C(=O)NCc6ccc7c(c6)CN(C6CCC(=O)NC6=O)C7=O)nn5)CC4)c3)cn2)CC1 (centres unmarked) [Compound 202]
–	> 1000	CC(C)(C)OC(=O)NCC1(O)C2CCC1CN(c1cnc(Sc3cccc(NC(=O)CCCCCCN4CC5(CCN(c6ccc(C(=O)NCc7ccc8c(c7)CN(C7CCC(=O)NC7=O)C8=O)nn6)C5)C4)c3)cn1)C2 (centres unmarked) [Compound 203]
–	> 1000	NCC1(O)C2CCC1CN(c1cnc(Sc3cccc(NC(=O)CCCCCCN4CC5(CCN(c6ccc(C(=O)NCc7ccc8c(c7)CN(C7CCC(=O)NC7=O)C8=O)nn6)C5)C4)c3)cn1)C2 (centres unmarked) [Compound 204]
–	> 1000	CC(C)(C)OC(=O)NC1CN(c2cnc(Sc3cccc(NC(=O)CCCCCCN4CC5(CCN(c6ccc(C(=O)NCc7ccc8c(c7)CN(C7CCC(=O)NC7=O)C8=O)nn6)C5)C4)c3)cn2)CC1O (centres unmarked) [Compound 205]
–	> 1000	NC1CN(c2cnc(Sc3cccc(NC(=O)CCCCCCN4CC5(CCN(c6ccc(C(=O)NCc7ccc8c(c7)CN(C7CCC(=O)NC7=O)C8=O)nn6)C5)C4)c3)cn2)CC1O (centres unmarked) [Compound 206]
–	< 100	NC1(CO)CCN(c2cnc(Sc3cccc(NC(=O)CCCCCC=C4CC5(CCN(c6ccc(C(=O)NCc7ccc8c(c7)CN(C7CCC(=O)NC7=O)C8=O)nn6)CC5)C4)c3)cn2)CC1 (centres unmarked) [Compound 210]
